In ChEMBL document CHEMBL3301562, “MMV Box screening against Plasmodium falciparum protein kinases and aminoacyl tRNA synthetases”:

What was measured:
Assay type in all cases: functional
[1] = target: T1, Putative uncharacterized protein pk7 (Plasmodium falciparum, UniProt O96214); assay: Final concentrations were 1 uM ATP, 2 mM DTT, 20 mM MgCl2, 2 mM MnCl2, 0.01% BSA, and 6 ug/ml PK7, in a buffer of 20 mM Tris-HCl (pH 7.5). The enzyme itself was the only substrate present (since autophosphorylation occurs); 100 uM 1NA-PP1 was used as a control inhibitor. Incubation time was 3 hours.
T1 sequence (O96214 whole entry): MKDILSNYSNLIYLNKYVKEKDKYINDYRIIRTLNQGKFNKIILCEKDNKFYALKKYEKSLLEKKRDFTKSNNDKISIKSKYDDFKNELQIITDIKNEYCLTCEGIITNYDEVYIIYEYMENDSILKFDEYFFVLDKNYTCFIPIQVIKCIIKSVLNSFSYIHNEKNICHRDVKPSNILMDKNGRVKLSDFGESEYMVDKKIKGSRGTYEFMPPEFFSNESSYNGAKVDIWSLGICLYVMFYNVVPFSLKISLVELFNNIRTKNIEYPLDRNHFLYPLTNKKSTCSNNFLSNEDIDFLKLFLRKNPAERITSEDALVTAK

[2] = target: T2, Cdk-related protein kinase 6 (Plasmodium falciparum, UniProt O77239); assay: Final concentrations were 1.5 uM ATP, 5 mM MnCl2, and 15 ug/ml PK6 in a buffer of 100 mM Tris-HCl (pH 7.5). 50 ug/mL MBP was provided as the substrate; 10 uM staurosporine was used as a control inhibitor. Incubation time was 3 hours and 40 minutes.The catalytic activity of each kinase was considered proportional to ATP consumed, as determined from measurements of residual [ATP] with the luciferase-based reagent Kinase-Glo (Promega) following incubation. Luminescence (proportional to residual [ATP]) was measured on the plate readers FLx800 (BioTek Instruments, Winooski, VT, USA) and MicroBeta2.
T2 sequence (O77239 whole entry): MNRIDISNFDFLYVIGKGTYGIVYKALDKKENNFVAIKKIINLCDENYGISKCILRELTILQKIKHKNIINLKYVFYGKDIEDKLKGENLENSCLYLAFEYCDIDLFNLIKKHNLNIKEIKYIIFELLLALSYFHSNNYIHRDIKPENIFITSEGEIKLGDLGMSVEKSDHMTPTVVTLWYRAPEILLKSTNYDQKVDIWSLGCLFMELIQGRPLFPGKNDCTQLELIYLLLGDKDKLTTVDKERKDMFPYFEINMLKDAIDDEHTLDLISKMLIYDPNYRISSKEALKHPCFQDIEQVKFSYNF

[3] = target: Calcium-dependent protein kinase 1 (Plasmodium falciparum, UniProt P62344); assay: MMV: CDPK1 Protein kinase inhibition assay using recombinant PfCDPK1, syntide 2 peptide substrate, ATP and KinaseGlo to measure % inhibition at 1 uM MMV box compound.
Chain of Calcium-dependent protein kinase 1 (P62344 whole entry): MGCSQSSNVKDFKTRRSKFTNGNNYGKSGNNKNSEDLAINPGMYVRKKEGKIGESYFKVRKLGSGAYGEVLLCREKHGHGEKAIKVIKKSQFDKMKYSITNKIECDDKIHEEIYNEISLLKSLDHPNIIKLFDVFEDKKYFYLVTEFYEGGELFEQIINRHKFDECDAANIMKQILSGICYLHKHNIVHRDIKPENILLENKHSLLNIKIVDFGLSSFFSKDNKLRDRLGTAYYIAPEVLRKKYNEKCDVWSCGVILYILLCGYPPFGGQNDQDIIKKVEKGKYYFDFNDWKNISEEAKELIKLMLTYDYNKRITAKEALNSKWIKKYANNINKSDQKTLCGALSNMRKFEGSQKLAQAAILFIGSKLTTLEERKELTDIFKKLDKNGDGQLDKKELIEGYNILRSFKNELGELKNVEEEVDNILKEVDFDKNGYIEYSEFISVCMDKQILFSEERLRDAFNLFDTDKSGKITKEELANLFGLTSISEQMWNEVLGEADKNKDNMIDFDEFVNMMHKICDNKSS

[4] = target: Lysine--tRNA ligase (Plasmodium falciparum (isolate 3D7), UniProt Q8IDJ8); assay: MMV: KRS recombinant Plasmodium falciparum Lysyl-tRNA-synthetase, assay with yeast tRNA, ATP, and lysine and 3 uM MMV malaria box compound, assay read out with kinase glo as % inhibition.
Chain of Lysine--tRNA ligase (Q8IDJ8 whole entry): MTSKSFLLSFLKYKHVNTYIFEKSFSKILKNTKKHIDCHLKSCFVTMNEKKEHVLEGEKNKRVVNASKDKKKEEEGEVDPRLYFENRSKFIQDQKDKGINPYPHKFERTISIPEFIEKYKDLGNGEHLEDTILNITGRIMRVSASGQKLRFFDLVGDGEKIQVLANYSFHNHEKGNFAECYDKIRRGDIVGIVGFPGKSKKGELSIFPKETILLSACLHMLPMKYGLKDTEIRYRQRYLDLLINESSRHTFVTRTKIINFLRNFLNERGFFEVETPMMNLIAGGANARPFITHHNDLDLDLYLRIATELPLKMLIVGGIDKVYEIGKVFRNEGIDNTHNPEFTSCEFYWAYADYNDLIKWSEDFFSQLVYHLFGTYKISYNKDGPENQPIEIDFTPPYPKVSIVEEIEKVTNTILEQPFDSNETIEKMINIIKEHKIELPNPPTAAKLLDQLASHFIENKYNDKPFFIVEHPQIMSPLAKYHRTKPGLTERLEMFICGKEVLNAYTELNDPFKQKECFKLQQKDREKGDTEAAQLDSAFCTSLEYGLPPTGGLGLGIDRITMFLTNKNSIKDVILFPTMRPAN

[5] = target: T3, Calcium-dependent protein kinase 4 (Plasmodium falciparum (isolate 3D7), UniProt Q8IBS5); assay: MMV: CDPK4 Protein kinase inhibition assay using recombinant PfCDPK4, syntide2 peptide substrate, ATP and KinaseGlo to measure % inhibition at 1 uM MMV box compound.
T3 sequence (Q8IBS5 whole entry): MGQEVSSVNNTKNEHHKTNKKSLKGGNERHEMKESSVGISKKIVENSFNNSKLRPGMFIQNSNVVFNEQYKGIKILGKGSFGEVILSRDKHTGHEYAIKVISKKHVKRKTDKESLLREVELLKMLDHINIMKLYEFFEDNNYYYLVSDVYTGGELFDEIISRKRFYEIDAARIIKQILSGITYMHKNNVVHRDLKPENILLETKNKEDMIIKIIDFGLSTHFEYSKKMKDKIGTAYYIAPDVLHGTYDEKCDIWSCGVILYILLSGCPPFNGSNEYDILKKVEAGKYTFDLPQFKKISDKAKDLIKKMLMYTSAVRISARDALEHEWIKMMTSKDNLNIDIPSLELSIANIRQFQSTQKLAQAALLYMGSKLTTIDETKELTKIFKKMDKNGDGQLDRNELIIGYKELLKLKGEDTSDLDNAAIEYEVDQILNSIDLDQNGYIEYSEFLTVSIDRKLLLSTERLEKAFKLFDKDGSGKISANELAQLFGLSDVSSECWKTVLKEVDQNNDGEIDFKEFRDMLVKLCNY

[6] = target: T4, Mitogen-activated protein kinase (Plasmodium falciparum, UniProt Q25917); assay: Final concentrations were 1 uM ATP, 0.5 mM DTT, 1 mM MgCl2, 0.5 mg/mL BSA, and 10 ug/ml MAP2 in a buffer of 50 mM HEPES (pH 7.0). 0.5 mg/mL histone III-S served as the substrate (13); 100 uM AMP-PNP, an ATP analog, was used as a control inhibitor. Incubation time was 4 hours.
T4 sequence (Q25917 whole entry): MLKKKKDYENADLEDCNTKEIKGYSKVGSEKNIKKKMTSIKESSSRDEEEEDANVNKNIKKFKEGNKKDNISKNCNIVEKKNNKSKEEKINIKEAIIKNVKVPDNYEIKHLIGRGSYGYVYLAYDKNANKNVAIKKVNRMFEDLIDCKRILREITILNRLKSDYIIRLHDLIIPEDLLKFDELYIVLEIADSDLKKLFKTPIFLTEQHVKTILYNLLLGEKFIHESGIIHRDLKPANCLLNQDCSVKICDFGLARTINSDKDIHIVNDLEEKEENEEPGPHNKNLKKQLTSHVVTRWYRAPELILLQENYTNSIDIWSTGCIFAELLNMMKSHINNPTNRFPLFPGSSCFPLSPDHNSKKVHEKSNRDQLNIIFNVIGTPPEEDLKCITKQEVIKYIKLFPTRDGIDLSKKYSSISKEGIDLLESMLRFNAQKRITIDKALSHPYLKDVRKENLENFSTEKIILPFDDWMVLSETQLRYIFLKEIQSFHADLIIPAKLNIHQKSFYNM

[7] = target: T5, Proline--tRNA ligase (Plasmodium falciparum (isolate 3D7), UniProt Q8I5R7); assay: MMV: ProRS recombinant Plasmodium falciparum Prolyl-tRNA-synthetase, assay with yeast tRNA, ATP, and proline and 3 uM MMV malaria box compound, assay read out with kinase glo as % inhibition.
T5 sequence (Q8I5R7 whole entry): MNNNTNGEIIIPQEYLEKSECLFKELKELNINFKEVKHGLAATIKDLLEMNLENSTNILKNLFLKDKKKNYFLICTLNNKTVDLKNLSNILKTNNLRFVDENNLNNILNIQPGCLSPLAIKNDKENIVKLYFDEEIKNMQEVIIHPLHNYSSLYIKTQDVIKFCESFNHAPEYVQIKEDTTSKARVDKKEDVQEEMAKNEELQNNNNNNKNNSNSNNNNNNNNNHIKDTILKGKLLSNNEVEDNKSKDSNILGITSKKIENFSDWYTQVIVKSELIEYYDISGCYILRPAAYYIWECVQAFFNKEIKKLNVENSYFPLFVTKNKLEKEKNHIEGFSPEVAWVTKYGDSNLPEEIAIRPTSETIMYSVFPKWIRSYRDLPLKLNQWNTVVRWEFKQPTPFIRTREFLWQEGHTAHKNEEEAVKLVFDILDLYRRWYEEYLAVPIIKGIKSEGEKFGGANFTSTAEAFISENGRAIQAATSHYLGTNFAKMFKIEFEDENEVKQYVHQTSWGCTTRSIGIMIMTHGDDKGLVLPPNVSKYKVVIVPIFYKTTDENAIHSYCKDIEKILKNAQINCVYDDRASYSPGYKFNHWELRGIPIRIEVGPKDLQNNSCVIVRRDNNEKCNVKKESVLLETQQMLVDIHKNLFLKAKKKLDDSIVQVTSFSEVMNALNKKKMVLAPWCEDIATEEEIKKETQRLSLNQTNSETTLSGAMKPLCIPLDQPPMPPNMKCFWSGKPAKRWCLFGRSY

Compound | IC50 [1] | IC50 [2] | IC50 [3] | IC50 [4] | IC50 [5] | IC50 [6] | IC50 [7]
CCOC(=O)C1=C(C)N=c2sc(=Cc3cc(Cl)ccc3O)c(=O)n2C1c1ccc(OC)cc1 (stereo not given) | > 1000 nM | > 1000 nM | > 1000 nM | > 2500 nM | > 1000 nM | > 1000 nM | > 2500 nM
FC(F)(F)c1cccc(Nc2nc3ccccc3nc2Nc2cccc(C(F)(F)F)c2)c1 | > 1000 nM | > 1000 nM | > 1000 nM | > 2500 nM | > 1000 nM | > 1000 nM | > 2500 nM
CC(=O)c1ccc(NC(=O)CSc2nc(-c3ccccc3Cl)ns2)cc1 | > 1000 nM | > 1000 nM | > 1000 nM | > 2500 nM | > 1000 nM | > 1000 nM | > 2500 nM
Cc1ccnc(NC(c2cccc(OCc3ccccc3)c2)c2ccc3cccnc3c2O)c1 (stereo not given) | > 1000 nM | > 1000 nM | > 1000 nM | > 2500 nM | > 1000 nM | > 1000 nM | > 2500 nM
Cc1ccc(OCCCCCCNCCO)c(C)c1 | > 1000 nM | > 1000 nM | > 1000 nM | > 2500 nM | > 1000 nM | > 1000 nM | > 2500 nM
CC(C)CCNCC(O)Cn1c2ccccc2c2ccccc21 (stereo not given) | > 1000 nM | > 1000 nM | > 1000 nM | > 2500 nM | > 1000 nM | > 1000 nM | > 2500 nM
O=C(Nc1ccc(C23CC4CC(CC(c5ccccc5)(C4)C2)C3)cc1)c1cccs1 | > 1000 nM | > 1000 nM | > 1000 nM | > 2500 nM | > 1000 nM | > 1000 nM | > 2500 nM
Cc1ccc2nc(C)cc(Nc3cccc(C(F)(F)F)c3)c2c1 | > 1000 nM | > 1000 nM | > 1000 nM | > 2500 nM | > 1000 nM | > 1000 nM | > 2500 nM
COc1ccc(-c2cc(=O)oc3c4c(ccc23)OCN(Cc2ccc(F)cc2)C4)cc1 | > 1000 nM | > 1000 nM | > 1000 nM | > 2500 nM | > 1000 nM | > 1000 nM | > 2500 nM
CCOC(=O)C1(Cc2ccccc2)CCN(Cc2cccc(OC)c2O)CC1 | > 1000 nM | > 1000 nM | > 1000 nM | > 2500 nM | > 1000 nM | > 1000 nM | > 2500 nM
CC(C)(C)c1ccc2c(c1)CN(Cc1ccc(Cl)cc1)CO2 | > 1000 nM | > 1000 nM | > 1000 nM | > 2500 nM | > 1000 nM | > 1000 nM | > 2500 nM
CCCCC(O)(c1ccc(Cl)cc1)C(CN1CCOCC1)c1ccc(Cl)cc1 (stereo not given) | > 1000 nM | > 1000 nM | > 1000 nM | > 2500 nM | > 1000 nM | > 1000 nM | > 2500 nM
Cc1cc(=O)oc2c1ccc1oc(C(=O)c3ccccc3)c(C)c12 | > 1000 nM | > 1000 nM | > 1000 nM | > 2500 nM | > 1000 nM | > 1000 nM | > 2500 nM
COc1ccc2c(c1OC)C(=O)N1c3ccccc3N=C(c3ccc(C)cc3)CC21 (stereo not given) | > 1000 nM | > 1000 nM | > 1000 nM | > 2500 nM | > 1000 nM | > 1000 nM | > 2500 nM
CCCCCCc1cc(O)c2c3c(c(=O)oc2c1)CCC(C)C3 (stereo not given) | > 1000 nM | > 1000 nM | > 1000 nM | > 2500 nM | > 1000 nM | > 1000 nM | > 2500 nM
COc1ccc(CCNC(=O)c2cc(S(=O)(=O)N3CC(C)CC(C)C3)ccc2Sc2ccc(F)cc2)cc1OC (stereo not given) | > 1000 nM | > 1000 nM | > 1000 nM | > 2500 nM | > 1000 nM | > 1000 nM | > 2500 nM
CC1=C(CC(=O)c2cccc([N+](=O)[O-])c2)C(=O)c2ccccc2C1=O | > 1000 nM | > 1000 nM | > 1000 nM | > 2500 nM | > 1000 nM | > 1000 nM | > 2500 nM
COc1ccc(C)c2sc(N(Cc3cccnc3)C(=O)c3ccc(C#N)cc3)nc12 | > 1000 nM | > 1000 nM | > 1000 nM | > 2500 nM | > 1000 nM | > 1000 nM | > 2500 nM
CCCCCn1c(=N)n(CC(O)COc2cccc(C)c2)c2ccccc21 (stereo not given) | > 1000 nM | > 1000 nM | > 1000 nM | > 2500 nM | > 1000 nM | > 1000 nM | > 2500 nM
Cc1ccc(S(=O)(=O)c2c(COC(=O)c3cccc(C)c3)c(-c3ccccc3)nn2C)cc1 | > 1000 nM | > 1000 nM | > 1000 nM | > 2500 nM | > 1000 nM | > 1000 nM | > 2500 nM
